Experimental data from patent US8546443B2, “Benzylic oxindole pyrimidines” (Boehringer Ingelheim International GmbH, priority 2010, dated 2013).

Experiments:
[1] = tested on: TC-71 (Ewing's sarcoma) cells; experiment: Cell proliferation assay, TC-71 (Alamar Blue); type: cell-based; conditions: 72 h with compound, EC50 ranges as class symbols
Method: Cell Proliferation Assays
Compounds were tested for their anti-proliferative effects in the TC-71 (Ewing's sarcoma) and HCT 116 (colorectal carcinoma) cancer cell lines in vitro. Published scientific data has described that interference with the Insulin-like Growth Factor-1 Receptor (IGF-1R) signaling pathway reduces the proliferation of TC-71 cells. Therefore TC-71 cells served as a positive control cell line for monitoring the activity of compounds against IGF-1R-mediated cell proliferation. […] Therefore the HCT 116 cell line served as a negative control.
2000 TC-71 cells or 1000 HCT 116 cells were seeded per well in 180 μL IMDM+10% foetal calf serum (FCS)+ penicillin/streptomycin into 96-well microtitre plates. The plates were placed in a cell culture incubator (37° C. in a humidified atmosphere of […]/5 CO2) overnight. The following day, serial dilutions of compounds, prepared in duplicates, were transferred onto the cell layers (controls without compound). The cells were cultivated for a further 72 h in the cell culture incubator. 20 μL of Alamar Blue™ (Serotec Ltd, Düsseldorf, Germany) was added to each well and the plates incubated for 7 h in the cell culture incubator. Fluorescence (extinction wavelength of 544 nm and emission at 590 nm) was then measured and the normalized data fitted by iterative calculation with a sigmoidal curve analysis program (Graph Pad Prism) with a variable Hill slope to determine the IC50 values.

[2] = biological target: T1, cytoplasmic kinase domain of human IGF-1R (IGF-1R-GST) (Homo sapiens, UniProt P08069); experiment: Insulin-like growth factor-1 receptor (IGF-1R) kinase assay (DELFIA); type: biochemical; conditions: IGF-1R-GST kinase activity, read-out: IGF1R IC50
T1 construct: cytoplasmic kinase domain of human IGF-1R (amino acids 964-1370); GST (glutathione-S-transferase); made in house; host or cells: High Five insect cells (Invitrogen)
T1 sequence (P08069 964-1367 limits assumed): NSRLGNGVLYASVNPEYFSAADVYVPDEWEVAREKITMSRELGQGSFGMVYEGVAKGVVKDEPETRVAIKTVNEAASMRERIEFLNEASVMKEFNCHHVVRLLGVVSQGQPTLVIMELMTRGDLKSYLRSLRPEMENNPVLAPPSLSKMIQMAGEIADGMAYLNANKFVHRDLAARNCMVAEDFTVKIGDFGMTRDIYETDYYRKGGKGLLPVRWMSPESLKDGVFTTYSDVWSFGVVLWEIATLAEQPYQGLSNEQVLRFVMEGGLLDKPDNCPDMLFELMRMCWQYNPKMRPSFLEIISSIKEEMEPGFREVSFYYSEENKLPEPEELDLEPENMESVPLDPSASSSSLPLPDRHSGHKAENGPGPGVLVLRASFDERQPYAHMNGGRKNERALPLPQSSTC
In short: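 GST-tagged IGF-1R cytoplasmic kinase domain phosphorylates pEY with biotinylated pEY for 40 min at RT; EDTA stop. Product captured on streptavidin, detected with europium anti-phosphotyrosine antibody by DELFIA time-resolved fluorescence; IC50 from inhibition curves.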

An EC50 [1] of 50 to 250 nM and an IC50 [2] of 7 nM were found for CC(C)(O)C(=O)N1CCC(c2ccc(Nc3ncc(Br)c(NCc4cccc5c4C(C)(C)C(=O)N5)n3)cc2)CC1 [Example I-54] in this work.

An EC50 [1] of 50 to 250 nM and an IC50 [2] of 1 nM were found for CC1(C)C(=O)Nc2cccc(CNc3nc(Nc4ccc(C5CCN(C(=O)C6CCCN6)CC5)cc4)ncc3Br)c21 (stereo not shown) [Example I-55] in this work.

An EC50 [1] of 250 to 3000 nM and an IC50 [2] of 2 nM were found for CC1(C)C(=O)Nc2cccc(CNc3nc(Nc4ccc(C5CCN(C(=O)C6CCN6)CC5)cc4)ncc3Br)c21 (stereo not shown) [Example I-56] in this work.

An EC50 [1] of under 50 nM and an IC50 [2] of 0.76 nM were found for Cc1cc(C2CCN(C(=O)CN(C)C)CC2)ccc1Nc1ncc(Br)c(NCc2cccc3c2C(C)(C)C(=O)N3)n1 [Example I-57] in this work.

An EC50 [1] of 250 to 3000 nM and an IC50 [2] of 6 nM were found for CN(C)CC(=O)N1CCC(n2cc(Nc3ncc(Cl)c(NCc4cccc5c4C(C)(C)C(=O)N5)n3)cn2)CC1 [Example I-66] in this work.

An EC50 [1] of 50 to 250 nM and an IC50 [2] of 15 nM were found for Cc1cc(C2CCN(C(=O)N(C)C)CC2)ccc1Nc1ncc(Cl)c(NCc2cccc3c2C(C)(C)C(=O)N3)n1 [Example I-67] in this work.

An EC50 [1] of under 50 nM and an IC50 [2] of 0.4 nM were found for COc1cc(C2CCN(C(=O)CN(C)C)CC2)ccc1Nc1ncc(Br)c(NCc2cccc3c2C(C)(C)C(=O)N3)n1 [Example I-68] in this work.

An EC50 [1] of under 50 nM and an IC50 [2] of 1 nM were found for Cc1cc(C2CCN(C(=O)CN(C)C)CC2)ccc1Nc1ncc(Cl)c(NCc2cccc3c2C(C)(C)C(=O)N3)n1 [Example I-69] in this work.

An EC50 [1] of under 50 nM and an IC50 [2] of 2 nM were found for COc1cc(N2CCN(C)CC2)ccc1Nc1ncc(Cl)c(NCc2cccc3c2C(C)(C)C(=O)N3)n1 [Example I-97] in this work.

An EC50 [1] of 50 to 250 nM and an IC50 [2] of 4 nM were found for CN1CCC(n2cc(Nc3ncc(Cl)c(NCc4cccc5c4C(C)(C)C(=O)N5)n3)cn2)CC1 [Example I-102] in this work.

An EC50 [1] of under 50 nM and an IC50 [2] of 0.69 nM were found for Cc1cc(C2CCN(C)CC2)ccc1Nc1ncc(Br)c(NCc2cccc3c2C(C)(C)C(=O)N3)n1 [Example I-103] in this work.

An EC50 [1] of under 50 nM and an IC50 [2] of 0.1 nM were found for COc1cc(N2CCN(C)CC2)ccc1Nc1ncc(C(F)(F)F)c(NCc2cccc3c2C(C)(C)C(=O)N3)n1 [Example I-104] in this work.

An EC50 [1] of 250 to 3000 nM and an IC50 [2] of 4 nM were found for COc1cc(N2CCN(C)CC2)ccc1Nc1ncc(C(F)(F)F)c(NCc2cccc3c2C2(CC2)C(=O)N3)n1 [Example I-160] in this work.

An EC50 [1] of 250 to 3000 nM and an IC50 [2] of 14 nM were found for Cc1cc(C2CCN(S(C)(=O)=O)CC2)ccc1Nc1ncc(Cl)c(NCc2cccc3c2C(C)(C)C(=O)N3)n1 [Example I-203] in this work.

An EC50 [1] of 50 to 250 nM and an IC50 [2] of 2 nM were found for COCCN1CCC(c2ccc(Nc3ncc(Cl)c(NCc4cccc5c4C(C)(C)C(=O)N5)n3)cc2)CC1 [Example I-204] in this work.

An EC50 [1] of 50 to 250 nM and an IC50 [2] of 0.68 nM were found for COCCN1CCC(c2ccc(Nc3ncc(Br)c(NCc4cccc5c4C(C)(C)C(=O)N5)n3)cc2)CC1 [Example I-208] in this work.

An EC50 [1] of 50 to 250 nM and an IC50 [2] of 1 nM were found for CC1(C)C(=O)Nc2cccc(CNc3nc(Nc4ccc(C5CCN(CCO)CC5)cc4)ncc3Br)c21 [Example I-209] in this work.

An EC50 [1] of under 50 nM and an IC50 [2] of 0.47 nM were found for CC(C)(O)CN1CCC(c2ccc(Nc3ncc(Br)c(NCc4cccc5c4C(C)(C)C(=O)N5)n3)cc2)CC1 [Example I-210] in this work.

An EC50 [1] of 50 to 250 nM and an IC50 [2] of 3 nM were found for CC(C)(O)CN1CCC(c2ccc(Nc3ncc(Cl)c(NCc4cccc5c4C(C)(C)C(=O)N5)n3)cc2)CC1 [Example I-211] in this work.

An EC50 [1] of 50 to 250 nM and an IC50 [2] of 3 nM were found for CC1(C)C(=O)Nc2cccc(CNc3nc(Nc4ccc(C5CCN(CCCF)CC5)cc4)ncc3Br)c21 [Example I-212] in this work.

An EC50 [1] of 50 to 250 nM and an IC50 [2] of 4 nM were found for CC1(C)C(=O)Nc2cccc(CNc3nc(Nc4ccc(C5CCN(CCCF)CC5)cc4)ncc3Cl)c21 [Example I-213] in this work.

An EC50 [1] of under 50 nM and an IC50 [2] of 0.62 nM were found for Cc1cc(C2CCN(CCO)CC2)ccc1Nc1ncc(Br)c(NCc2cccc3c2C(C)(C)C(=O)N3)n1 [Example I-214] in this work.

An EC50 [1] of 250 to 3000 nM and an IC50 [2] of 12 nM were found for COCCN1CCC(n2cc(Nc3ncc(Cl)c(NCc4cccc5c4C(C)(C)C(=O)N5)n3)cn2)CC1 [Example I-215] in this work.
